According to patent publication US9273015B2, “s-Triazine compounds, pharmaceutical compositions and methods of using the same” (NEW YORK UNIVERSITY, priority 2010, dated 2016):
Values after ≈ are worked out from the molar mass of the structure shown. “Also recorded” adds a separate entry of the source. Read-outs that look alike come from different tables or passages of the source.

How the values were obtained:
E. coli D31 = assay: Growth inhibition (broth microdilution), E. coli D31; assay type: cell-based, Escherichia coli
Description: (§1) The antimicrobial activity of each peptide can be tested following standard broth microdilution protocols recommended by the National Committee for Clinical Laboratory Standard. Multidrug-resistant Staphylococcus aureus strain (ATCC BAA-44) and Acinetobacter baumannii (ATCC BAA-747) can be used in this study, as well as Ampicillin- and streptomycin-resistant Escherichia coli (D31), obtained from the E. coli Genetic Resource Center (Yale University, New Haven, Conn.). Bacteria can be grown overnight in Tryptic Soy broth at 37° C. Then, cultures are diluted in Mueller-Hinton broth to a final concentration range of 2×10^4 to 2×10^5 CFU/ml. Bacterial inocula are incubated at 37° C. in phosphate-buffered saline (PBS) buffer (pH7.2) with various dilutions of peptide stock. The 18-hour absorbance data are used to calculate the percentage of inhibition for each sample by comparison with the absorbance of cultures without sample. Bacterial growth is measured by turbidity as optical density at 600 nm (OD600), using a Genesys 5 Spectrophotometer (Rochester, N.Y.) or equivalent instrument. All assays can be carried out in triplicate. The concentration of peptide that results in 50% inhibition of growth is recorded as the IC50. In addition the concentration of agents needed can be monitored to reduce the bacterial population by three logs, IC99.9. This is a more rigorous indicator of the amount needed to prevent an infection.
(§2) The antimicrobial activity of each triazine compound was tested by following standard broth microdilution protocols recommended by the National Committee for Clinical Laboratory Standard. All compounds were initially tested against Bacillus subtilis (ATCC 6633; Rockville, Md.). Bacteria were grown in Mueller Hinton Broth (MHB) at 37° C. for overnight. Then, cultures were diluted in MHB to a final concentration of 2×10^4 to 2×10^5 CFU/mL. Bacterial inocula were incubated at 37° C. in PBS buffer (pH 7.2) with varying concentrations of 2-fold dilution of triazine stocks. The 18-hour absorbance data were used to calculate the percent inhibition for each sample by comparing with the absorbance of cultures without triazine compounds. Bacterial growth was measured by turbidity as optical density at 600 nm using a Genesys 5 Spectrophotometer (Rochester, N.Y.).

A. baumannii [1] = assay: Growth inhibition (broth microdilution), A. baumannii; assay type: cell-based, Acinetobacter baumannii; conditions: Table 1
Description: as §1, §2

S. aureus = assay: Growth inhibition (broth microdilution), S. aureus; assay type: cell-based, Staphylococcus aureus; conditions: for IC50: Table 3
Description: as §1, §2

fresh sheep erythrocytes = assay: Hemolytic activity; assay type: cell-based
Description: Hemolytic activity of triazine compounds is assessed using fresh sheep erythrocytes (Fitzgerald Inc., Concord, Mass.). The red blood cell suspension is incubated in PBS buffer (pH 7.2) with varying concentrations of sample stocks at 37° C. for 30 minutes, and then spun down at 3,000 rpm for 10 mins. The resulting supernatant is diluted by a factor of 40 with distilled water. The absorbance of the supernatant at 540 nm is measured using a Genesys 5 Spectrophotometer. Zero % and 100% hemolysis controls are obtained by incubating the cells with buffer and 1% Triton-X, respectively.
Hemolytic activity of three triazine compounds Is assessed on fresh sheep erythrocytes (Fitzgerald Inc., Concord, Mass.). The red blood cell suspension Is incubated in PBS buffer (pH 7.2) with varying concentrations of sample stocks at 37° C. for 30 minutes, and then spun down at 3,000 rpm for 10 mins. The resulting supernatant is diluted by a factor of 40 in distilled water. The absorbance of the supernatant at 540 nm is measured using a Genesys 5 Spectrophotometer. Zero hemolysis and 100% hemolysis controls are obtained by incubating the cells with buffer and 1% Triton-X, respectively. Sample concentration yielding 50% hemolysis is used as hemolytic dose (HD50) determined from dose-response curves.

B. subtilis = assay: Growth inhibition (broth microdilution), B. subtilis; assay type: cell-based; conditions: Bacillus subtilis; for MIC50: read-out: B. Subtilis MIC50; for MIC90: read-out: B. Subtilis MIC90; for IC50: Table 3
Description: as §2

A. baumannii [2] = assay: Evolution of resistance on exposure to sublethal concentrations; assay type: cell-based; conditions: 400 generations of exposure to sublethal concentrations
Description: FIG. 1 graphically depicts the experimental evaluation of the ability of A. baumannii to evolve resistance to sublethal TN5 and the AMP indolicidin relative to two antibiotics in current use. Changes in the IC50 of cultures exposed to sublethal doses of TN5 are expressed as ratios of the new to original values. For reference, the response of these cells to two current antibiotics is shown.
In particular, FIG. 1 depicts the results of the experimental evaluation of the ability of A. baumannii to evolve resistance to sublethal TN5 and the AMP indolicidin relative to two antibiotics in current use. Changes in the IC50 of cultures exposed to sublethal doses of TN5 are expressed as ratios of the new to original values. For reference, the response of these cells to ciprofloxacin and gentamycin, two current antibiotics is shown.

[3] = tested on: E. coli RP437/pRSH103 biofilm; assay: Biofilm formation in 96 well plate (crystal violet, OD540); assay type: cell-based
Description: This assay is based on the protocols described previously (Li, 2001 #745; Pratt, 1998 #725) with slight modifications. Briefly, E. coli RP437 or the test strain is used to form biofilms in 96 well plates in the presence of dendrimer peptides (RW)4D or other agents. An overnight culture of E. coli RP437 grown in LB medium is used to inoculate LB medium in 96 well plates to an OD600 of 0.05. The peptides can be added to a final concentration of 0, 5, 10, 20, or 40 μM, respectively. Four replicates are tested for each condition. All samples are incubated at 37° C. without shaking for 24 hours to form the film. Then planktonic cells are removed and the plates with biofilms are washed three times with DI H2O and dried by gentle patting on a piece of paper towel. To stain the biofilms, 300 μL of 0.1% crystal violet is added into each well and incubated for 20 minutes at room temperature. Then the plates are washed three times with DI H2O to remove extra staining dye. OD540 is then measured to quantify the biofilm on the bottom of each well.
(§3) The strain for this experiment used was E. coli RP437/pRSH103, a strong film forming strain. The surface studied was that of a 96 well plate. Culture conditions were 24 hours or 48 hours of incubation in Luria-Bertani Broth (LB) supplemented with 10 μg/mL tetracycline at 37° C. The following assays were performed:
(§4) 1. Measurement of total cell growth in each well using OD600. 2. Quantification of the biofilm at the bottom of each well by staining with 0.1% crystal violet and reading OD540.
2. Quantification of total biofilm by dissolving the crystal violet with ethanol and reading at OD540 Absorbance at 540 nm and 600 nm with the medium and triazine only (no cells) was also measured to control the results by subtracting the background reading.

[4] = tested on: E. coli RP437/pRSH103 planktonic cells; assay: Total planktonic cell growth (OD600); assay type: cell-based; conditions: concentration range 0-5 μg/mL
Description: as §3, §4

[5] = Escherichia coli, D31, Table 2, read-out: E. Coli MIC50
[6] = Escherichia coli, D31, Table 2, read-out: E. Coli MIC90
[7] = Escherichia coli, D31, Table 3, read-out: E. coli IC50
[8] = Staphylococcus aureus, Table 2, read-out: S. Aureus MIC50
[9] = Staphylococcus aureus, Table 2, read-out: S. Aureus MIC90

Molecule | MIC50 (E. coli D31; E. coli D31, Table 1) [µg/mL] | MIC90 (E. coli D31; E. coli D31, Table 1) [µg/mL] | MIC50 (A. baumannii [1]) [µg/mL] | MIC90 (A. baumannii [1]) [µg/mL] | MIC50 (S. aureus; S. aureus, Table 1) [µg/mL] | MIC90 (S. aureus; S. aureus, Table 1) [µg/mL] | HD50 (fresh sheep erythrocytes; 50% hemolysis, Table 1) [µg/mL] | MIC50 (E. coli D31; [5]) [µg/mL] | MIC90 (E. coli D31; [6]) [µg/mL] | MIC50 (S. aureus; [8]) [µg/mL] | MIC90 (S. aureus; [9]) [µg/mL] | IC50 (S. aureus; Staphylococcus aureus) [µg/mL] | MIC50 (B. subtilis; Table 2) [µg/mL] | MIC90 (B. subtilis; Table 2) [µg/mL] | IC50 (B. subtilis) [µg/mL] | HD50 (fresh sheep erythrocytes; Table 3) [µg/mL] | Acquired resistance (change in IC50, ratio of new to original) (A. baumannii [2]) | further results
CCCCN(CCCC)CCCNc1nc(NCc2ccccc2)nc(Nc2cccc3ccccc23)n1 [TN2] | 26.9 (≈ 52.6 µM) | 55.6 (≈ 109 µM) | 12.8 (≈ 25 µM) | 15.8 (≈ 30.9 µM) | 12.1 (≈ 23.6 µM) | 14.55 (≈ 28.4 µM) | 840.8 |  |  |  |  |  |  |  |  |  |  | 
N=C(N)NCCNc1nc(NCCc2c[nH]c3ccccc23)nc(NCCc2c[nH]c3ccccc23)n1 [TZ-WRW] |  |  |  |  |  |  |  | 4.1 (≈ 8.24 µM) | 9.1 (≈ 18.3 µM) | 3.3 (≈ 6.63 µM) | 3.5 (≈ 7.03 µM) | 3.3 (≈ 6.63 µM) | 2.9 (≈ 5.83 µM) | 5.1 (≈ 10.2 µM) | 2.9 (≈ 5.83 µM) | 43.6 |  | IC50 (E. coli D31; [7]): 4.1 µg/mL (≈ 8.24 µM)
CN[C@H](CC(C)C)C(=O)N[C@H]1C(=O)N[C@@H](CC(N)=O)C(=O)N[C@H]2C(=O)N[C@H]3C(=O)N[C@H](C(=O)N[C@H](C(=O)O)c4cc(O)cc(O)c4-c4cc3ccc4O)[C@H](O)c3ccc(c(Cl)c3)Oc3cc2cc(c3O[C@@H]2O[C@H](CO)[C@@H](O)[C@H](O)[C@H]2O[C@H]2C[C@](C)(N)[C@H](O)[C@H](C)O2)Oc2ccc(cc2Cl)[C@H]1O [Vancomycin, reference compound] |  |  |  |  |  |  |  |  |  |  |  |  |  |  |  |  | marked contrast | MIC50 (E. coli D31; Escherichia coli, D31, read-out: E. Coli MIC50): 192 µg/mL (≈ 132 µM); MIC90 (E. coli D31; Escherichia coli, D31, read-out: E. Coli MIC90): > 200 µg/mL; MIC50 (S. aureus; Staphylococcus aureus, read-out: S. Aureus MIC50): 0.8 µg/mL (≈ 0.552 µM); MIC90 (S. aureus; Staphylococcus aureus, read-out: S. Aureus MIC90): 1.2 µg/mL (≈ 0.828 µM); MIC50 (B. subtilis): < 0.8 µg/mL; MIC90 (B. subtilis): < 0.8 µg/mL
O=C(O)c1cn(C2CC2)c2cc(N3CCNCC3)c(F)cc2c1=O [ciprofloxacin] |  |  |  |  |  |  |  |  |  |  |  |  |  |  |  |  | significant increase in the IC50 | 
NCCCCNc1nc(NCc2ccccc2)nc(Nc2cccc3ccccc23)n1 [TN3] | 40 (≈ 96.7 µM) | 84.8 (≈ 205 µM) | 50.8 (≈ 123 µM) | 77.4 (≈ 187 µM) | 50.1 (≈ 121 µM) | 71.3 (≈ 172 µM) | 901.9 |  |  |  |  |  |  |  |  |  |  | 
NCCCCNc1nc(NCc2ccccc2)nc(NCc2cccc3ccccc23)n1 [TN5] | 4.75 (≈ 11.1 µM) | 8.9 (≈ 20.8 µM) | 3 (≈ 7.02 µM) | 5.1 (≈ 11.9 µM) | 5.9 (≈ 13.8 µM) | 9.8 (≈ 22.9 µM) | 167.5 |  |  |  |  |  |  |  |  |  | does not acquire resistance | Biofilm formation ([3]; E. coli): prevents film formation; Biofilm formation ([3]; E. coli, listed as TN-5): prevents formation of biofilms; Biofilm formation ([3]; at 1, 5, 10 μg/mL, 24 or 48 hours in LB): inhibited biofilm formation; Growth of planktonic cells [4]: does not inhibit growth of planktonic cells
CCCCN(CCCC)CCCNc1nc(NCc2ccccc2)nc(NCc2cccc3ccccc23)n1 [TN4] | 18.8 (≈ 35.8 µM) | 62.5 (≈ 119 µM) | 302.5 (≈ 575 µM) | 462.5 (≈ 880 µM) | 68 (≈ 129 µM) | 117.5 (≈ 223 µM) | 221.3 |  |  |  |  |  |  |  |  |  |  | 
gentamycin |  |  |  |  |  |  |  |  |  |  |  |  |  |  |  |  | marked contrast; also recorded: significant increase in the IC50 | 
NCCCNc1nc(NCCc2c[nH]c3ccccc23)nc(NCCc2c[nH]c3ccccc23)n1 [TZ-WKW] |  |  |  |  |  |  |  | 4.5 (≈ 9.58 µM) | 6 (≈ 12.8 µM) | 3.4 (≈ 7.24 µM) | 4.4 (≈ 9.37 µM) | 3.4 (≈ 7.24 µM) | 1.5 (≈ 3.19 µM) | 2.3 (≈ 4.9 µM) | 1.5 (≈ 3.19 µM) | 65 |  | IC50 (E. coli D31; Escherichia coli, D31, read-out: E. coli IC50): 4.5 µg/mL (≈ 9.58 µM)
CCCCN(CCCC)CCCNc1nc(NCCc2c[nH]c3ccccc23)nc(NCCc2c[nH]c3ccccc23)n1 [TZ-WK(Bu)2W] |  |  |  |  |  |  |  | 21.3 (≈ 36.6 µM) | 55.2 (≈ 94.9 µM) | 1.8 (≈ 3.09 µM) | 2.4 (≈ 4.13 µM) | 1.8 (≈ 3.09 µM) | 1 (≈ 1.72 µM) | 3.1 (≈ 5.33 µM) | 1 (≈ 1.72 µM) | 91.5 |  | IC50 (E. coli D31; [7]): 21.3 µg/mL (≈ 36.6 µM)
